Literature values as cited in patent publication US12083078B2, “Parenteral cannabinoid formulations and uses thereof” (priority 2020, dated 2024).

Conditions: buffering pH range

Row | pH range | SMILES
1 | 4-6 | CC(=O)O [Acetic Acid]
2 | 3-7 | O=C(O)CC(O)(CC(=O)O)C(=O)O [Citric Acid]
3 | 3-4.5 | CC(O)C(=O)O (stereo not shown) [Lactic Acid]

Row | SMILES | pH range
4 | O=P(O)(O)O [Sodium Phosphate] | 8-8
